Read-outs that look alike come from different tables or passages of the source.
How the values were obtained:
[1] = tested on: poly(ADPribose)polymerase (PARP); assay: Immunoblot of PARP protein integrity in T24 cells; format: cell-based, human; conditions: 5 µM, 4 h, regardless of the presence of ascorbate (1 mM)
Method: Figure 1 Effects of selected quinones of Hsp90 (A) and poly(ADPribose)polymerase (PARP) (B) protein integrity in T24 cells. […] Ctl represents control untreated cells. * p < 0.05 as compared to control conditions. […] This was the case regardless of the presence of ascorbate (1 mM). The obtained results make a potential role of apoptosis unlikely to be the underlying mechanism of cell impairment induced by quinones, including menadione. Indeed, PARP is a substrate of caspase-3, therefore, when an apoptosis process is triggered, it is expected that PARP protein will be cleaved yielding a second protein band also recognized by the anti-PARP antibody. Cancer cells were incubated for 4 h in the absence and in the presence of compounds. Afterward, cells were washed twice with ice-cold PBS and then resuspended in RIPA lysis buffer supplemented with 1% protease inhibitor cocktail (Sigma–Aldrich, St. Louis, MO, USA) and 3% phosphatase inhibitor cocktail (Calbiochem, Darmstadt, Germany). Treatment of samples and electrophoresis conditions were conducted as previously reported. Mouse monoclonal primary antibodies against hsp90α/β C-terminus (F8), and against β-actin (clone AC-15), were purchased from Santa Cruz Biotechnology (Santa Cruz, CA, USA) and from Abcam (Cambridge, UK), respectively. Rabbit polyclonal antibodies against PARP were purchased from BD Biosciences (San Diego, CA, USA). […]

Hsp90 = assay: Immunoblot of Hsp90 protein integrity in T24 cells; format: cell-based, human; conditions: 5 µM quinone plus 1 mM ascorbate, 4 h
Method: Nevertheless, when incubation was done in the presence of 1 mM ascorbate (vitamin C) plus quinones (including menadione), a new peptide fragment of about 70 kD was detected by the antibody against Hsp90.
Figure 1 Effects of selected quinones of Hsp90 (A) and poly(ADPribose)polymerase (PARP) (B) protein integrity in T24 cells. Cancer cells were incubated for 4 h with 5 µM menadione (K3), 15, 16, 19, or 20 either in the absence or in the presence of 1 mM ascorbate (Asc). Ctl represents control untreated cells. * p < 0.05 as compared to control conditions.
Cancer cells were incubated for 4 h in the absence and in the presence of compounds. Afterward, cells were washed twice with ice-cold PBS and then resuspended in RIPA lysis buffer supplemented with 1% protease inhibitor cocktail (Sigma–Aldrich, St. Louis, MO, USA) and 3% phosphatase inhibitor cocktail (Calbiochem, Darmstadt, Germany). Treatment of samples and electrophoresis conditions were conducted as previously reported. Mouse monoclonal primary antibodies against hsp90α/β C-terminus (F8), and against β-actin (clone AC-15), were purchased from Santa Cruz Biotechnology (Santa Cruz, CA, USA) and from Abcam (Cambridge, UK), respectively. Rabbit polyclonal antibodies against PARP were purchased from BD Biosciences (San Diego, CA, USA). […]

DU-145 (prostate) cells = tested on: DU-145 (prostate) cells; parameters: method as in doi:10.1016/j.tetlet.2015.07.034; conditions: read-out: IC50 ± SEM DU-145, MTT, data from Valderrama et al. ref 16; cited from earlier work
[2] = tested on: non-tumor fibroblasts AG 1523; assay: MTT reduction assay, non-tumor fibroblasts; format: cell-based; conditions: Homo sapiens, AG1523, 48 h incubation, read-out: IC50 ± SEM AG 1523
Method: (§1) As positive control, two well-known anticancer drugs, namely TAM and 5-FU, were also tested on these cell lines. […] Regarding 5-FU, it is a broad-spectrum chemotherapeutic drug used to treat a variety of malignancies. Particularly, it has a long history of use against bladder tumors.
Cell culture conditions were the same as reported elsewhere. Briefly, cell lines were kept in DMEM containing 10% fetal calf serum. In addition, 100 U/mL of penicillin and 100 µg/mL streptomycin from Gibco (Grand Island, NY, USA) were further added. Cell cultures were kept at 37 °C under an atmosphere of 95% air/5% CO2 and 100% humidity. Sodium L-ascorbate, menadione (vitamin K3), TAM, and 5-FU were purchased from Sigma (St. Louis, MO, USA).
The cytotoxicity of the quinones was assessed by following the reduction of MTT (3-(4,5-dimethylthiazol-2-yl)-2,5-diphenyltetrazolium bromide) to formazan blue and the capability of cancer cells to proliferate, namely a clonogenic assay.
(§2) Cells were seeded into 96-well plates at a density of 10,000 cells/well for 24 h and then incubated for 48 h with or without the quinone derivatives. […] The IC50 values were determined using the GraphPad Prism software (San Diego, CA, USA). Further incubation procedures and optical density reading of colored solutions were performed according to Benites et al..

MCF-7 (breast) cells = tested on: MCF-7 (breast) cells; parameters: method as in doi:10.1016/j.tetlet.2015.07.034; conditions: MTT, data from Valderrama et al. ref 16, read-out: IC50 ± SEM MCF-7; cited from earlier work
[3] = tested on: panel of cancer cells (T24, DU-145, MCF-7); assay: MTT reduction assay, panel of cancer cells (means, ranges, selectivity index); format: cell-based, human; conditions: for IC50: Homo sapiens
Method: as §1
Such a selective index was calculated as the ratio between IC50 values of healthy cells/IC50 values in cancer cells.
as §2

Cc1ccc2c(c1)SC1=NC3=C(C(=O)c4ccccc4C3=O)C(C)(O)N12 (centres unmarked) [Compound 15]
PARP cleavage [1]: no effect on PARP protein integrity | Hsp90 protein cleavage (Hsp90): induced an oxidative cleavage of Hsp90 | IC50 (DU-145 (prostate) cells): 110 ± 30 nM | IC50 [2]: 32300 ± 3310 nM | IC50 (MCF-7 (breast) cells): 2980 ± 520 nM | IC50 ([3]; read-out: IC50 values on the panel of cancer cells (range over cell lines)): 110 to 1770 nM | IC50 ([3]; read-out: mean IC50 value calculated from the individual IC50 values of the three cancer cell lines): 1100 to 1610 nM | MSI: mean selective index ([3]; IC50 values of fibroblasts (AG 1523)/IC50 values of tumor cells (T24, DU-145, MCF-7)): 29.4
